Experiment [1] is described as follows: (§1) Antagonist activity at dopamine receptor in Sprague-Dawley rat olfactory tubercles assessed as inhibition of dopamine-induced adenylate cyclase activity after 5 mins. It is filed as tissue-based, Olfactory tubercle. The conditions noted are these: read-out: I50.
The species named for experiment [2] is Rattus norvegicus. Briefly: (§2) Antagonist activity at dopamine receptor in Sprague-Dawley rat olfactory tubercles assessed as inhibition of adenylate cyclase activity after 5 mins. It is filed as tissue-based. The note with it: Olfactory tubercle.
Experiment [3] is filed under the species Rattus norvegicus. In words: Antagonist activity at dopamine receptor in Sprague-Dawley rat olfactory tubercles assessed as inhibition of adenylate cyclase activity at 100 uM after 5 mins. The class given is tissue-based. The note with it: Olfactory tubercle.
Experiment [4] is described as follows: as §2. The class given is tissue-based, Olfactory tubercle. The conditions noted are these: read-out: I50.
The subject of experiment [5] is Rattus norvegicus. In words: Central nervous system activity in ip dosed rat assessed as dose required to cause depression by measuring decreased motor activity. The class given is functional.
Experiment [6] has as its system Rattus norvegicus. Briefly: Central nervous system activity in ip dosed rat assessed as dose required to cause decreased reflex action by measuring decreased grip strength. It is filed as functional.
Experiment [7] is filed under the species Rattus norvegicus. Briefly: Antagonist activity at dopamine receptor in Sprague-Dawley rat olfactory tubercles assessed as inhibition of dopamine-induced adenylate cyclase activity at 100 uM after 5 mins. The class given is tissue-based. The note with it: Olfactory tubercle.
The species entered for experiment [8] is Rattus norvegicus. The experiment is described as §1. It is filed as tissue-based. The conditions noted are these: Olfactory tubercle.
The species entered for experiment [9] is Rattus norvegicus. Briefly: Antagonist activity at dopamine receptor in Sprague-Dawley rat olfactory tubercles assessed as inhibition of adenylate cyclase activity at 10 uM after 5 mins. The class given is tissue-based. The note with it: Olfactory tubercle.

SMILES strings stand for the structures. Active and inactive are the calls of the source. The rule behind the calls is not given here. Bounds are passed on as bounds.

The inhibition is the drop in the measured response relative to a control, in per cent. For the compound `CN1CCN(C2=Nc3cc(Cl)ccc3Nc3ccccc32)CC1` [CLOZAPINE], in experiment [1], the IC50 turned out to be 6 µM. Also, the I50 result in the experiment listed under Rattus norvegicus [2] is “inactive”. In addition, in the experiment filed under Rattus norvegicus [3], the inhibition was under 10%.

In the case of `CN(C)CCCN1C(=O)/C(=C/c2ccccc2Cl)Oc2ccccc21.Cl`, the values for the IC50 in experiment [1] and in experiment [4] were 30 µM and 170 µM, respectively. Moreover, the ED with Rattus norvegicus [5] is over 200 mg/kg; in the experiment with Rattus norvegicus [6], 100 mg/kg.

For the compound `Cl.O=C1/C(=C/c2ccccc2)Oc2ccccc2N1CCN1CCOCC1`, the inhibition in the experiment filed under Rattus norvegicus [7] and in the experiment filed under Rattus norvegicus [3] was under 10% throughout. The I50 result in the experiment listed under Rattus norvegicus [8] and in the experiment listed under Rattus norvegicus [2] was “inactive” throughout. Moreover, the ED in the experiment with Rattus norvegicus [5] and with Rattus norvegicus [6] was over 200 mg/kg throughout.

In the case of `Cc1ccc2c(c1)N(CCCN(C)C)C(=O)/C(=C/c1ccccc1)O2.O=C(O)CCC(=O)O`, the IC50 worked out at 15 µM in experiment [1] and 450 µM in [4]. Further, the ED in the experiment on Rattus norvegicus [5] and with Rattus norvegicus [6] was 100 mg/kg throughout.

Turning to `C[N+](C)(C)CCCN1C(=O)/C(=C/c2ccccc2)Oc2ccccc21.[Cl-]`, the results for the IC50 in experiment [1] and in experiment [4] were 650 µM and 1000 µM, respectively. Also, the ED in the experiment on Rattus norvegicus [5] and in the experiment with Rattus norvegicus [6] was 50 mg/kg each time.

Take `CN(C)CCN1C(=O)/C(=C/c2ccccc2)Oc2ccccc21.Cl`: the IC50 in [1] is 100 µM; in experiment [4] it was over 100 µM. Moreover, the ED with Rattus norvegicus [5] and in the experiment on Rattus norvegicus [6] was 50 mg/kg throughout.

Regarding `COc1ccc2c(c1)N(CCCN(C)C)C(=O)/C(=C/c1ccccc1)O2.Cl`, the IC50 was 60 µM in experiment [1] and over 100 µM in experiment [4]. The ED in the experiment on Rattus norvegicus [5] and with Rattus norvegicus [6] was over 200 mg/kg in each case.

In the case of `OCCN1CCN(CCCN2c3ccccc3Sc3ccc(C(F)(F)F)cc32)CC1` [FLUPHENAZINE], the inhibition in the experiment listed under Rattus norvegicus [9] was under 10%. Further, the IC50 in [1] worked out at 0.5 µM. Moreover, the I50 result in the experiment filed under Rattus norvegicus [2] was “inactive”.

In the case of `Cl.O=C1/C(=C/c2ccccc2)Oc2ccccc2N1CCCN1CCN(CO)CC1`, the IC50 was 54 µM in [1] and over 400 µM in [4]. Further, the ED with Rattus norvegicus [5] and in the experiment on Rattus norvegicus [6] was 100 mg/kg throughout.

As to `CN1CCN(CCCN2C(=O)/C(=C/c3ccccc3)Oc3ccc(Cl)cc32)CC1`, the IC50 in [1] and in experiment [4] was over 500 µM throughout. Further, the ED in the experiment with Rattus norvegicus [5] and in the experiment on Rattus norvegicus [6] was over 200 mg/kg each time.

As for `CN1CCN(CCCN2C(=O)C(Cc3ccccc3)Oc3ccccc32)CC1.Cl` (stereo not given), the ED with Rattus norvegicus [5] is over 200 mg/kg; with Rattus norvegicus [6], 50 mg/kg.

As for `CN(C)CCCCN1C(=O)/C(=C/c2ccccc2)Oc2ccccc21.Cl`, the IC50 in [1] was 80 µM; in experiment [4] it was over 200 µM. Further, the results for the ED in the experiment on Rattus norvegicus [5] and in the experiment with Rattus norvegicus [6] were over 200 mg/kg and 50 mg/kg, respectively.

With `CN(C)CCCN1C(=O)C(Cc2ccccc2)Oc2ccccc21.Cl` (stereo not given), the ED with Rattus norvegicus [5] was found to be 100 mg/kg; in the experiment on Rattus norvegicus [6], 50 mg/kg.

Take `CCCC(C)(COC(N)=O)COC(N)=O` [MEPROBAMATE]: the ED is 50 mg/kg in the experiment with Rattus norvegicus [5] and 25 mg/kg with Rattus norvegicus [6].

For the compound `CN(C)CCCN1C(=O)/C(=C/c2ccc(Cl)cc2)Oc2ccccc21.Cl`, the IC50 in experiment [1] worked out at 30 µM; in experiment [4], 450 µM. For the same compound, the ED with Rattus norvegicus [5] and in the experiment with Rattus norvegicus [6] was 100 mg/kg each time.

Turning to `CN1CCN(CCCN2C(=O)/C(=C/c3ccccc3)Oc3ccccc32)CC1.Cl`, the IC50 was 35 µM in experiment [1] and 450 µM in experiment [4]. Further, the results for the ED with Rattus norvegicus [5] and in the experiment on Rattus norvegicus [6] were 50 mg/kg and 12.5 mg/kg, respectively.

Consider `CCN(CC)CCCN1C(=O)/C(=C/c2ccccc2)Oc2ccccc21.Cl`, for which the IC50 was 60 µM in experiment [1] and over 100 µM in experiment [4]. Further, the ED with Rattus norvegicus [5] amounted to 50 mg/kg; in the experiment on Rattus norvegicus [6], 12.5 mg/kg.

In the case of `CN(C)CCN1C(=O)C(Cc2ccccc2)Oc2ccccc21.Cl` (stereo not given), the ED with Rattus norvegicus [5] is over 200 mg/kg; with Rattus norvegicus [6], 200 mg/kg.

Take `CN(C)CCCN1C(=O)C(Cc2ccccc2)Oc2ccc(Cl)cc21.Cl` (stereo not given): the ED with Rattus norvegicus [5] is over 200 mg/kg; in the experiment on Rattus norvegicus [6] it was 100 mg/kg.

Take `CN(C)CCCN1C(=O)/C(=C/c2ccccc2)Oc2ccccc21.Cl`: the IC50 in [1] came to 33 µM; in experiment [4], 600 µM. Moreover, the ED in the experiment on Rattus norvegicus [5] and in the experiment on Rattus norvegicus [6] was 25 mg/kg each time.

On to `O=C1Nc2ccccc2O/C1=C\c1ccccc1`, for which the inhibition in the experiment listed under Rattus norvegicus [7] and in the experiment listed under Rattus norvegicus [3] was under 10% in each case. In addition, the I50 entry in the experiment listed under Rattus norvegicus [8] and in the experiment filed under Rattus norvegicus [2] was “inactive” throughout. For the same compound, the ED in the experiment on Rattus norvegicus [5] and with Rattus norvegicus [6] was over 200 mg/kg throughout.

Turning to `Cl.O=C1/C(=C/c2ccccc2)Oc2ccccc2N1CCCN1CCN(c2ccccc2)CC1`, the inhibition in the experiment listed under Rattus norvegicus [7] and in the experiment listed under Rattus norvegicus [3] was under 10% throughout. For the same compound, the I50 entry in the experiment listed under Rattus norvegicus [8] and in the experiment listed under Rattus norvegicus [2] was “inactive” in each case. In addition, the ED in the experiment with Rattus norvegicus [5] and in the experiment with Rattus norvegicus [6] was 100 mg/kg throughout.

On to `CN(C)CCCN1C(=O)/C(=C/c2ccccc2)Oc2ccc(Cl)cc21.Cl`, for which the IC50 in [1] was 100 µM; in experiment [4], over 100 µM. The ED in the experiment with Rattus norvegicus [5] was over 200 mg/kg; in the experiment with Rattus norvegicus [6], 200 mg/kg.

On to `CN(C)CCCN1C(=O)/C(=C/c2cccs2)Oc2ccccc21.Cl`, for which the figures for the IC50 in experiment [1] and in experiment [4] were 56 µM and over 200 µM, respectively. The ED in the experiment with Rattus norvegicus [5] and in the experiment with Rattus norvegicus [6] was 100 mg/kg throughout.

The values above are taken from ChEMBL document CHEMBL3244224, “Synthesis and central nervous system activity of 2-arylidene-4-aminoalkyl-2H-1,4-benzoxazin-3(4H)-ones and related compounds” (J Med Chem, 1977).
